Laboratory results as given in patent publication US11865098B1, “Methods and compositions for treating excessive sleepiness” (Axsome Malta Ltd., priority 2017, dated 2024).

System: patients with narcolepsy type 1 or type 2
Test: Safety and tolerability (TEAEs, discontinuations), 12-week phase 3 study in narcolepsy
Type: in vivo, human
Conditions: for Anxiety, incidence % / Anxiety, incidence n / Any TEAE, incidence % / Any TEAE, incidence n / Constipation, incidence % / Constipation, incidence n / Decreased appetite, incidence % / Decreased appetite, incidence n / Diarrhea, incidence % / Diarrhea, incidence n / Discontinuations due to TEAEs, incidence % / Discontinuations due to TEAEs, incidence n / Dizziness, incidence % / Dizziness, incidence n / Dry mouth, incidence % / Dry mouth, incidence n / Dyspepsia, incidence % / Dyspepsia, incidence n / Fatigue, incidence n / Headache, incidence % / Headache, incidence n / Heart rate increased, incidence n / Influenza, incidence % / Influenza, incidence n / Insomnia, incidence % / Insomnia, incidence n / Nasopharyngitis, incidence % / Nasopharyngitis, incidence n / Nausea, incidence % / Nausea, incidence n / Serious TEAEs, incidence n / Upper respiratory tract infection, incidence % / Upper respiratory tract infection, incidence n / Weight Increased, incidence % / Weight Increased, incidence n / Weight decreased, incidence % / Weight decreased, incidence n / Fatigue, incidence % / Serious TEAEs, incidence % / Heart rate increased, incidence %: safety population
Experimental: The study was a 12-week, double-blind, randomized, placebo-controlled, parallel-group study. Patients were randomized (1:1:1:1) to receive placebo or APC 75, 150, or 300 mg; randomization was stratified by the presence or absence of cataplexy.
Co-primary endpoints were change from baseline to week 12 in MWT mean sleep latency and ESS score. The key secondary endpoint was the percentage of patients who reported improvement on the Patient Global Impression of Change (PGI-C) (Guy, ECDEU assessment manual for psychopharmacology, revised. US Department of Health, Education, and Welfare publication (ADM 76-338). Rockville, MD: National Institute of Mental Health; 1976) at week 12. Other secondary and exploratory endpoints included changes on function and quality-of-life and changes in the number of cataplexy attacks per week. Safety evaluation included adverse events, laboratory tests, and vital signs.

NC(=O)OC[C@H](N)Cc1ccccc1 [JZP-110, (R)-2-amino-3-phenylpropyl carbamate]
Discontinuation rate (75 mg): 16.9% | Anxiety, incidence % (75 mg): (1.7) % | Anxiety, incidence n (75 mg): 1 | Any TEAE, incidence % (75 mg): (57.6) % | Any TEAE, incidence n (75 mg): 34 | Constipation, incidence % (75 mg): (5.1) % | Constipation, incidence n (75 mg): 3 | Decreased appetite, incidence % (75 mg): (8.5) % | Decreased appetite, incidence n (75 mg): 5 | Diarrhea, incidence % (75 mg): (3.4) % | Diarrhea, incidence n (75 mg): 2 | Discontinuations due to TEAEs, incidence % (75 mg): (1.7) % | Discontinuations due to TEAEs, incidence n (75 mg): 1 | Dizziness, incidence % (75 mg): (3.4) % | Dizziness, incidence n (75 mg): 2 | Dry mouth, incidence % (75 mg): (5.1) % | Dry mouth, incidence n (75 mg): 3 | Dyspepsia, incidence % (75 mg): (1.7) % | Dyspepsia, incidence n (75 mg): 1 | Fatigue, incidence n (75 mg): 0 | Headache, incidence % (75 mg): (10.2) % | Headache, incidence n (75 mg): 6 | Heart rate increased, incidence n (75 mg): 0 | Influenza, incidence % (75 mg): (3.4) % | Influenza, incidence n (75 mg): 2 | Insomnia, incidence % (75 mg): (3.4) % | Insomnia, incidence n (75 mg): 2 | Nasopharyngitis, incidence % (75 mg): (8.5) % | Nasopharyngitis, incidence n (75 mg): 5 | Nausea, incidence % (75 mg): (5.1) % | Nausea, incidence n (75 mg): 3 | Serious TEAEs, incidence n (75 mg): 0 | Upper respiratory tract infection, incidence % (75 mg): (1.7) % | Upper respiratory tract infection, incidence n (75 mg): 1 | Weight Increased, incidence % (75 mg): (3.4) % | Weight Increased, incidence n (75 mg): 2 | Weight decreased, incidence % (75 mg): (1.7) % | Weight decreased, incidence n (75 mg): 1 | Discontinuation rate (150 mg): 13.6% | Serious TEAEs (events) (150 mg, one patient, deemed not related by the investigator): 2 serious TEAEs of non-cardiac chest pain and anxiety | Anxiety, incidence % (150 mg): (5.1) % | Anxiety, incidence n (150 mg): 3 | Any TEAE, incidence % (150 mg): (79.7) % | Any TEAE, incidence n (150 mg): 47 | Constipation, incidence % (150 mg): (1.7) % | Constipation, incidence n (150 mg): 1 | Decreased appetite, incidence % (150 mg): (8.5) % | Decreased appetite, incidence n (150 mg): 5 | Diarrhea, incidence % (150 mg): (5.1) % | Diarrhea, incidence n (150 mg): 3 | Discontinuations due to TEAEs, incidence % (150 mg): (5.1) % | Discontinuations due to TEAEs, incidence n (150 mg): 3 | Dizziness, incidence % (150 mg): (1.7) % | Dizziness, incidence n (150 mg): 1 | Dry mouth, incidence % (150 mg): (6.8) % | Dry mouth, incidence n (150 mg): 4 | Dyspepsia, incidence % (150 mg): (3.4) % | Dyspepsia, incidence n (150 mg): 2 | Fatigue, incidence % (150 mg): (3.4) % | Fatigue, incidence n (150 mg): 2 | Headache, incidence % (150 mg): (23.7) % | Headache, incidence n (150 mg): 14 | Heart rate increased, incidence n (150 mg): 0 | Influenza, incidence % (150 mg): (1.7) % | Influenza, incidence n (150 mg): 1 | Insomnia, incidence n (150 mg): 0 | Nasopharyngitis, incidence % (150 mg): (13.6) % | Nasopharyngitis, incidence n (150 mg): 8 | Nausea, incidence % (150 mg): (10.2) % | Nausea, incidence n (150 mg): 6 | Serious TEAEs, incidence % (150 mg): (1.7) % | Serious TEAEs, incidence n (150 mg): 1 | Upper respiratory tract infection, incidence % (150 mg): (6.8) % | Upper respiratory tract infection, incidence n (150 mg): 4 | Weight Increased, incidence n (150 mg): 0 | Weight decreased, incidence % (150 mg): (1.7) % | Weight decreased, incidence n (150 mg): 1 | Discontinuation rate (300 mg): 27.1% | Discontinuation due to adverse events (300 mg, n=5): 8.5% | Anxiety, incidence % (300 mg): (8.5) % | Anxiety, incidence n (300 mg): 5 | Any TEAE, incidence % (300 mg): (67.8) % | Any TEAE, incidence n (300 mg): 40 | Constipation, incidence n (300 mg): 0 | Decreased appetite, incidence % (300 mg): (15.3) % | Decreased appetite, incidence n (300 mg): 9 | Diarrhea, incidence % (300 mg): (5.1) % | Diarrhea, incidence n (300 mg): 3 | Discontinuations due to TEAEs, incidence % (300 mg): (8.5) % | Discontinuations due to TEAEs, incidence n (300 mg): 5 | Dizziness, incidence % (300 mg): (5.1) % | Dizziness, incidence n (300 mg): 3 | Dry mouth, incidence % (300 mg): (10.2) % | Dry mouth, incidence n (300 mg): 6 | Dyspepsia, incidence % (300 mg): (5.1) % | Dyspepsia, incidence n (300 mg): 3 | Fatigue, incidence % (300 mg): (5.1) % | Fatigue, incidence n (300 mg): 3 | Headache, incidence % (300 mg): (30.5) % | Headache, incidence n (300 mg): 18 | Heart rate increased, incidence % (300 mg): (6.8) % | Heart rate increased, incidence n (300 mg): 4 | Influenza, incidence % (300 mg): (1.7) % | Influenza, incidence n (300 mg): 1 | Insomnia, incidence % (300 mg): (5.1) % | Insomnia, incidence n (300 mg): 3 | Nasopharyngitis, incidence % (300 mg): (5.1) % | Nasopharyngitis, incidence n (300 mg): 3 | Nausea, incidence % (300 mg): (16.9) % | Nausea, incidence n (300 mg): 10 | Serious TEAEs, incidence n (300 mg): 0 | Upper respiratory tract infection, incidence n (300 mg): 0 | Weight Increased, incidence % (300 mg): (1.7) % | Weight Increased, incidence n (300 mg): 1 | Weight decreased, incidence % (300 mg): (5.1) % | Weight decreased, incidence n (300 mg): 3 | Discontinuations due to TEAEs compared with placebo (150 and 300 mg groups): greater than placebo | Anxiety, incidence % (All JZP-110): (5.1) % | Anxiety, incidence n (All JZP-110): 9 | Any TEAE, incidence % (All JZP-110): (68.4) % | Any TEAE, incidence n (All JZP-110): 121 | Constipation, incidence % (All JZP-110): (2.3) % | Constipation, incidence n (All JZP-110): 4 | Decreased appetite, incidence % (All JZP-110): (10.7) % | Decreased appetite, incidence n (All JZP-110): 19 | Diarrhea, incidence % (All JZP-110): (4.5) % | Diarrhea, incidence n (All JZP-110): 8 | Discontinuations due to TEAEs, incidence % (All JZP-110): (5.1) % | Discontinuations due to TEAEs, incidence n (All JZP-110): 9 | Dizziness, incidence % (All JZP-110): (3.4) % | Dizziness, incidence n (All JZP-110): 6 | Dry mouth, incidence % (All JZP-110): (7.3) % | Dry mouth, incidence n (All JZP-110): 13 | Dyspepsia, incidence % (All JZP-110): (3.4) % | Dyspepsia, incidence n (All JZP-110): 6 | Fatigue, incidence % (All JZP-110): (2.8) % | Fatigue, incidence n (All JZP-110): 5 | Headache, incidence % (All JZP-110): (21.5) % | Headache, incidence n (All JZP-110): 38 | Heart rate increased, incidence % (All JZP-110): (2.3) % | Heart rate increased, incidence n (All JZP-110): 4 | Influenza, incidence % (All JZP-110): (2.3) % | Influenza, incidence n (All JZP-110): 4 | Insomnia, incidence % (All JZP-110): (2.8) % | Insomnia, incidence n (All JZP-110): 5 | Nasopharyngitis, incidence % (All JZP-110): (9.0) % | Nasopharyngitis, incidence n (All JZP-110): 16 | Nausea, incidence % (All JZP-110): (10.7) % | Nausea, incidence n (All JZP-110): 19 | Serious TEAEs, incidence % (All JZP-110): (0.6) % | Serious TEAEs, incidence n (All JZP-110): 1 | Upper respiratory tract infection, incidence % (All JZP-110): (2.8) % | Upper respiratory tract infection, incidence n (All JZP-110): 5 | Weight Increased, incidence % (All JZP-110): (1.7) % | Weight Increased, incidence n (All JZP-110): 3 | Weight decreased, incidence % (All JZP-110): (2.8) % | Weight decreased, incidence n (All JZP-110): 5
